Laboratory results taken from PMC5597618, “Identification and characterization of the novel reversible and selective cathepsin X inhibitors” (Scientific Reports, 2017).
Like-named read-outs stand apart in the source and are kept apart here.

What was measured:
[1] = biological target: T1, Cathepsin B (exopeptidase a.) (Homo sapiens, UniProt P07858); assay: Ki against cathepsin B exopeptidase activity (Abz-GIVRAK(Dnp)-OH); type: biochemical; settings: SigmaPlot at 3 different substrate concentrations; pH 5.0
T1 construct: made in house; host or cells: E. coli
Description: (§1) Recombinant or native human cathepsins were used: recombinant cathepsin X and cathepsin S were expressed in Pichia pastoris, recombinant cathepsins B and L in E. coli, [43], native cathepsin H was isolated from human liver. Assay buffers for determining activities of cathepsins X and L consisted of 100 mM sodium acetate buffer, pH 5.5, for cathepsins H, S and B (endopeptidase activity) of 100 mM phosphate buffer pH 6.8, 6.5 and 6.0, respectively and for cathepsin B (exopeptidase activity) of 60 mM acetate buffer pH 5.0. Each assay buffer contained 0.01% Triton X-100 to prevent false positive inhibition due to aggregation of compounds[45], 5 mM cysteine, 1.5 mM EDTA and 0.1% PEG 8000. Enzymes were activated at 37 °C for 5 min before the assays.
(§2) Ki was determined by measuring the initial rate of hydrolysis at three different substrate concentrations (Supplementary Table S2) in the presence of seven different compound concentrations (0, 20, 40, 60, 80, 100 and 200 μM). 90 μL of the activated cathepsin was added to a black 96-well plate with 5 μL of the substrate and 5 μL of the compound. Formation of the fluorescent degradation product was monitored continuously at 460 nm ± 10 nm with excitation at 380 nm ± 20 nm (for AMC substrates) and, as noted above for Abz substrates, at 37 °C. All measurements were performed twice and in duplicate. The resulting data were analyzed by non-linear regression using the software SigmaPlot®, Enzyme Kinetics Module™ 1.3 and were fitted to the equation v = v max [S]/([S] (1 + [I]/αK i ) + K m (1 + [I]/K i )) (first group of compounds). For Ki determination against cathepsin X for the compounds from the second group, progress curves in the absence and presence of each putative inhibitor were fitted to the reaction mechanism presented in Fig. 3b. In this case the resulting data as well as reactivation curves were fitted to the equation system presented in Fig. 3c using ENZO application. For calculation of kinetic parameters from reaction progress curves the fluorescence coefficient for conversion of arbitrary fluorescence units to concentration was first determined. The fluorescence coefficient was calculated as the slope from the plot of initial substrate concentration vs. height of the plateau of the progress curve after complete hydrolysis of increasing concentrations of substrate, using linear regression.
(§3) Supplementary Table S2. Substrates used for the various cathepsins and their concentrations […]
(§4) Enzyme Substrate Concentration (µM) Reference/Company cathepsin X Abz-FEK(Dnp)-OH 3.25, 6.5, 13 Puzer et al.3 cathepsin B - endopept. Z-RR-AMC 60, 180, 360 Bachem cathepsin B - exopept. Abz-GIVRAK(Dnp)-OH 1, 3, 6 Bachem cathepsin S Z-VVR-AMC 0.5, 1, 1.5 Biomol cathepsin L Z-FR-AMC 0.5, 1, 4 Bachem cathepsin H Z-R-AMC 20, 80, 160 Biomol […]

Cathepsin L = biological target: T2, Cathepsin L (Homo sapiens, UniProt P07711); assay: Ki against cathepsin L (Z-FR-AMC); type: biochemical; settings: SigmaPlot at 3 different substrate concentrations; pH 5.5
T2 construct: made in house; host or cells: E. coli
T2 sequence (P07711 114-333): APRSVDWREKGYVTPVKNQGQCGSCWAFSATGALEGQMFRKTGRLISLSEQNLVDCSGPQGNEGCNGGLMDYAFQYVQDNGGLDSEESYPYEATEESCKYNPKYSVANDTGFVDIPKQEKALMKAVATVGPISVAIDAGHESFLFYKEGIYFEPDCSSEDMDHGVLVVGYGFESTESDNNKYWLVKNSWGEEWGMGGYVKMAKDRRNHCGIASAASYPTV
Description: as §1, §2, §3, §4

PC-12 cells [2] = assay: Neurite outgrowth assay; type: cell-based, rat; settings: 10 µM; 48 h; vs DMSO control
Description: Human prostate cancer cell line PC-3 cells (obtained from ATCC, Manassas, USA; ATCC Number: CRL-1435) were cultured in F-12 (Gibco) and Advanced DMEM (Gibco) (1:1) with 10% FBS, 1% penicillin/streptomycin and 1% L-glutamine. Rat pheochromocytoma PC-12 cells (obtained from ATCC, Manassas, USA; ATCC Number: CRL-1721) were cultured in Advanced DMEM (Gibco) with 5% FBS, 10% heat-inactivated horse serum, 1% penicillin/streptomycin and 1% L-glutamine.
PC-12 cells were seeded in 96-well plates (4 × 10^4/well) coated with poly-L-lysine. Next day, the cells were treated with compounds (10 µM) in serum-free medium, and neurite outgrowth was measured after 48 h using Neurite Outgrowth Staining Kit (Molecular Probes), in accordance with the manufacturer’s instructions. Fluorescence intensity was measured at 525 nm with excitation at 483 nm for cell viability indicator and at 567 nm with excitation at 554 nm for cell membrane indicator. Results, expressing increased neurite outgrowth, were normalized to cells treated with DMSO.

PC-12 cells [3] = assay: Determination of F-actin content of cells (phalloidin-TRITC fluorescence microscopy); type: cell-based, rat; settings: 10 µM, 2 h
Description: For the fluorescence staining of F-actin, PC-12 cells were cultured on glass coverslips coated with poly-L-lysine (4 × 10^4/ml). Next day, cells were treated with compounds (10 µM) in serum-free medium for 2 h. The cells were then fixed in 5% formalin (w/v) in PBS (pH 7.4) for 5 min and permeabilized with 0.1% Triton X-100 in PBS for 3 min. After washing with PBS, cells were incubated with phalloidin-TRITC (500 ng/mL) (Sigma) in 20 mM TrisHCl (pH 7.4) at 37 °C for 30 min. After additional washing with PBS, the Prolong Antifade kit was used for mounting the coverslips on glass slides. Fluorescence microscopy was performed using an Olympus IX 81 motorized inverted microscope.

cathepsin X = cathepsin X (Homo sapiens, UniProt Q9UBR2); assay: Determination of relative inhibition of cathepsin X; type: biochemical; design: made in house; host or cells: Pichia pastoris
cathepsin X, sequence (Q9UBR2 62-303): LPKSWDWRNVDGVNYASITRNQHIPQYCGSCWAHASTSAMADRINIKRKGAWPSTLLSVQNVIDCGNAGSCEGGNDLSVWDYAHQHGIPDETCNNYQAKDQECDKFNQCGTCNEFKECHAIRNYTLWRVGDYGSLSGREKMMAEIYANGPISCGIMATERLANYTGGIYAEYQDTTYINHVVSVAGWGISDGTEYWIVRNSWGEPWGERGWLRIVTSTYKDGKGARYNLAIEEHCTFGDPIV
Description: as §1
Abz-FEK(Dnp)-OH was used as cathepsin X specific substrate in activity assays. 90 μL of activated cathepsin X (20 nM) was added to a black 96-well plate with 5 μL of substrate (3.25 μM final concentration) and 5 μL of the compound (50 μM final concentration). The reaction was monitored continuously at 420 nm ± 10 nm with excitation at 320 nm ± 20 nm and at 37 °C. Relative inhibition (%) was calculated with the equation (1 − v i/v 0) × 100, where v i is reaction velocity in the presence of the compound and v 0 is reaction velocity without the compound.

Ki [1]: 306 ± 38.1 µM
Ki Cathepsin L (Cathepsin L): n.i.
inhibition at 50 µM (cathepsin X; screening at 50 μM compound, read-out: relative inhibition of cathepsin X): > 70%
inhibition at 50 µM (cathepsin X; second group, 50 μM compound, 1 h preincubation, read-out: % inhibition (1 h preincubation)): 75%
Structure (SMILES): CC(C)n1cnnc1SCC(=O)c1ccc2c(c1)OCCO2 [Compound 22, 1-(2,3-Dihydrobenzo[b][1,4]dioxin-6-yl)-2-((4-isopropyl-4H-1,2,4-triazol-3-yl)thio)ethan-1-one]
increase of neurite outgrowth (PC-12 cells [2]): 85%
actin polymerization (PC-12 cells [3]): increased actin polymerization
